Reference: US20060105013A1, “Osteopontin-coated surfaces and methods of use” (priority 2000, published 2006)

How the values were obtained:
HOS cells = assay: Attachment of HOS cells to plastic, glass or chromocobalt surfaces coated with OPN; type: cell-based, human; settings: 1 hour
Protocol: 500 cells were plated on coated plastic, glass or chromocobalt surfaces and incubated at 37° C. in a humidified atmosphere (95% air 5% CO2). Surfaces were coated with either human recombinant phosphorylated OPN (rhOPN) or unphosphorylated OPN. Fibronectin coated surfaces were used as a control. After 1 hour, unattached cells were removed and the surfaces were washed with PBS. The total number of attached cells was determined for the total cpm released for the surfaces after the cells were lysed with 10% TCA and solubilized in 5 ml scintillation fluid. All measurements were done in triplicates.

canine model [1] = assay: Safety assessment (serum chemistry, hematology, antibody) after coated implant treatment in dogs; type: in vivo, dog; settings: dogs with coated implants; vs baseline
Source text: The issue of safety was also addressed by assessing the serum chemistry, hematology and antibody results following treatment. […] Therefore, rOPN and OC-1016 are safe based upon these evaluations.

canine model [2] = assay: Osseointegration of coated TPS dental implants in canine model (bone to implant contact, bone density); type: in vivo, dog; settings: coating 200 μg/ml
Source text: Canine models allow the use of implant designs and sizes commonly used in clinical applications.
Mandibular premolars and first molars were extracted bilaterally in a total of twelve dogs. After a healing period of three months, 6 implants TPS (ITI 4.1×8 mm) were placed in each mandibular quadrant. Test coatings of rOPN and mOC-1016 and non-coated TPS control wre used. A randomized distrubution of tests and controls were incorporated.
Large hounds were used in this Example. For all surgical procedures (extractions, implant placement, suture removal), after sedation with acepromazine (0.1 mg/kgS.C.), the animals were anesthetized using pentobarbitol (20 mg/kg I.V.). Antibiotics (bicillin 200,000 u I.M.) and ibuprofen for pain control (200 mg/dog/day P.O.) were given for extraction and implant placement surgeries. For sacrifice, an overdose of pentobarbitol (50 mg/kg I.V. after sedation with acepromazine 0.1 mg/kg S.C.) was administered.
The implant and it's surrounding tissue were dissected in block, fixed in 4% formaldehyde and imbedded in PMMA. The osseointegration of the implant was measured as percent of directly apposed bone versus total implant area by contour analysis using an image analysis system. The extent of new mineralized bone (in percent) in the area between the major and minor diameter of the implant was also determined.

CD44 (human) = CD44 (human) (UniProt P16070); assay: cell-based or functional assay
αvβ3 integrin (human) = αvβ3 integrin (human) (UniProt P06756); assay: cell-based or functional assay
αβ1 integrin (human) = αβ1 integrin (human) (UniProt P05556); assay: cell-based or functional assay
[3] = test system: human osteoprogenitor cells; assay: Peptide binding: attachment and spreading of human osteoprogenitor cells on coated plates; type: cell-based
Protocol: Example 11 analyzes the binding and cell spread activity of various peptides. The activities were measured in 24-well plates that were coated overnight at 4° C. with 10 μg/ml of the indicated ligand or peptide and then blocked for one hour at room temperature with 10 mg/ml BSA (Bovine Serum Albumin) in PBS (Phosphate Buffered Saline). To preserve the integrity of the adhesion receptors osteoprogenitor cells were harvested from sub-confluent cultures by non-enzymatic cell dissociation solution (Sigma, St. Louis, Mo.). Cells were washed twice with PBS and re-suspended at a concentration of 1×10^5 cells/ml of sterile Ca^2+- and Mg^2+-free PBS, supplemented with 0.1% BSA and 1 mM sodium pyruvate. 5×10^4 cells were incubated in each well and, after one hour at 37° C., the wells were washed three times with 0.5 ml PBS to remove non-adherent cells, fixed in 1% glutaraldehyde in 0.1 M cacodylate buffer (pH 7.4) at room temperature for one hour then stained with toluidine blue and hematoxylin. The total number of attached or spread cells in each well were counted microscopically using a Nikon Eclipse microscope equipped with a Sony digital camera. Total number of attached or spread cells were quantified using an Optima 5.2 image analysis system. Each experiment was done in triplicate and is reported as mean+/−standard error. To minimize variability inherent to cell attachment studies cells were scored as attached only when a defined nucleus observed accompanied by a transition from round to cuboidal cell morphology. Round cells that are loosely attached with no defined nucleus were scored as non-attached. These cells can be removed with repeated washes. The viability of the cells was measured before and after the termination of the experiments and only data from experiments with greater than 95% cell viability were used. […] Cell spreading was determined by membrane contour analysis and was scored according to increase in cell volume/surface area. Because of this change in cell volume/surface area, cell spreading is a measure of a change in cellular development. In some experiments, cell spreading was also assessed by the formation of stress fibers. The formation of stress fibers and/or changes in cell volume/surface area are each characteristics of cells undergoing differentiation. Each experiment was performed in quadruplicate wells and repeated three times.
5000 total human osteoprogenitor cells were plated on either uncoated plates or coated and incubated at 37° C. in a humidified atmosphere (95% air, 5% CO2). After 30 minutes, unattached cells were removed and the plates were washed with PBS. The total number of attached cells was determined as described in the materials and methods. In some experiments (labeled with an “#” in Table 8), antibodies ([…]) against various integrins were incubated with the cells for 15 minutes prior to plating.

[4] = cells pre-incubated with Anti-CD44
[5] = cells pre-incubated with Anti-αvβ3
[6] = cells pre-incubated with Anti-αβ1

UniProt P06756, sequence (P06756 31-1048, chain 1 of 2): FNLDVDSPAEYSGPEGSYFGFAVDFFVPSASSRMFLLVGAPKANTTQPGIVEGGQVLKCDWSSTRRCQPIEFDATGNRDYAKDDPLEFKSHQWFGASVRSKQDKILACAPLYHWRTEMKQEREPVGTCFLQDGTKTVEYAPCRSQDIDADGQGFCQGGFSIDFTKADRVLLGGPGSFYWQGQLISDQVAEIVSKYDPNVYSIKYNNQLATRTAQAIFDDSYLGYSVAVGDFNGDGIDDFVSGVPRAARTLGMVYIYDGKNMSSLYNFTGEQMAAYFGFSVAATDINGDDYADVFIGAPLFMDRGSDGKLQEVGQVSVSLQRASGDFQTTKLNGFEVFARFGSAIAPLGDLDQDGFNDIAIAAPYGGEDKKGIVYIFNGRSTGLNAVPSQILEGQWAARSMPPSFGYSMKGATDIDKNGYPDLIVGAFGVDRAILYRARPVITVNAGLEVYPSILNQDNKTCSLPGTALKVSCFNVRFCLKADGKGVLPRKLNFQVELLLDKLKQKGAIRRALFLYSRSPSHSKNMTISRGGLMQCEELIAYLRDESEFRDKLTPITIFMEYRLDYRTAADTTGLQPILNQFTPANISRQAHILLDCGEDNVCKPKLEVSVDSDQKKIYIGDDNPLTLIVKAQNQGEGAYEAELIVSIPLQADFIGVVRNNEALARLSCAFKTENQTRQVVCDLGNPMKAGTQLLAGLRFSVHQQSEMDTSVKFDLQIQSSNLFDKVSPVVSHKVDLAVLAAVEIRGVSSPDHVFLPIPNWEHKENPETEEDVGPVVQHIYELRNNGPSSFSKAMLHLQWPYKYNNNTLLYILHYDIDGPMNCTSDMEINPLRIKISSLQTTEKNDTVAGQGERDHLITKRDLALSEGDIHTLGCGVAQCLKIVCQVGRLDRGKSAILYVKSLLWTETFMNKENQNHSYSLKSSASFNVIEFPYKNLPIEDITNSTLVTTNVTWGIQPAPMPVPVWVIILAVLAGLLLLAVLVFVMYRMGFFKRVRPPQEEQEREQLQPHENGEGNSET
UniProt P06756, sequence (P05106 27-788, chain 2 of 2, further chain): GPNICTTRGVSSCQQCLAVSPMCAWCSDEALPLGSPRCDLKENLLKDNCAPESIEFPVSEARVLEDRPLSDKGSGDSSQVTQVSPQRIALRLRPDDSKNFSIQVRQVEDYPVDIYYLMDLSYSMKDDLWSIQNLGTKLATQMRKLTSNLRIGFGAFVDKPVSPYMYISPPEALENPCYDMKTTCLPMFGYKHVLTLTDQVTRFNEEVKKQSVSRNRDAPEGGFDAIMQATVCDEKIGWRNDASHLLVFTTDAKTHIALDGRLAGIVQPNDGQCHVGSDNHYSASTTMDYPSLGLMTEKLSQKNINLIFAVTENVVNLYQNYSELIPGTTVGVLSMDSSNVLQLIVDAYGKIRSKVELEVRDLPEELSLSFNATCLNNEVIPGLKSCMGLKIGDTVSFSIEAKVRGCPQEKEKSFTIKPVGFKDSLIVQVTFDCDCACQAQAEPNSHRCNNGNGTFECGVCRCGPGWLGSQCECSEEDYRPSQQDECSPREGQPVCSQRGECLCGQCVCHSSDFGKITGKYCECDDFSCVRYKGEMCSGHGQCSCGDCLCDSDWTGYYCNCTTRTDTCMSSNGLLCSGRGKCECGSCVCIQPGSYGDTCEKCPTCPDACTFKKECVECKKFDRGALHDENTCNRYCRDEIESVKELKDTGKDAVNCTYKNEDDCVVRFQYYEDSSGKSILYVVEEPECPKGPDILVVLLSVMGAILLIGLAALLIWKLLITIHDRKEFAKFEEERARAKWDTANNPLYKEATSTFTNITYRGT
UniProt P05556, sequence (P05556 21-798): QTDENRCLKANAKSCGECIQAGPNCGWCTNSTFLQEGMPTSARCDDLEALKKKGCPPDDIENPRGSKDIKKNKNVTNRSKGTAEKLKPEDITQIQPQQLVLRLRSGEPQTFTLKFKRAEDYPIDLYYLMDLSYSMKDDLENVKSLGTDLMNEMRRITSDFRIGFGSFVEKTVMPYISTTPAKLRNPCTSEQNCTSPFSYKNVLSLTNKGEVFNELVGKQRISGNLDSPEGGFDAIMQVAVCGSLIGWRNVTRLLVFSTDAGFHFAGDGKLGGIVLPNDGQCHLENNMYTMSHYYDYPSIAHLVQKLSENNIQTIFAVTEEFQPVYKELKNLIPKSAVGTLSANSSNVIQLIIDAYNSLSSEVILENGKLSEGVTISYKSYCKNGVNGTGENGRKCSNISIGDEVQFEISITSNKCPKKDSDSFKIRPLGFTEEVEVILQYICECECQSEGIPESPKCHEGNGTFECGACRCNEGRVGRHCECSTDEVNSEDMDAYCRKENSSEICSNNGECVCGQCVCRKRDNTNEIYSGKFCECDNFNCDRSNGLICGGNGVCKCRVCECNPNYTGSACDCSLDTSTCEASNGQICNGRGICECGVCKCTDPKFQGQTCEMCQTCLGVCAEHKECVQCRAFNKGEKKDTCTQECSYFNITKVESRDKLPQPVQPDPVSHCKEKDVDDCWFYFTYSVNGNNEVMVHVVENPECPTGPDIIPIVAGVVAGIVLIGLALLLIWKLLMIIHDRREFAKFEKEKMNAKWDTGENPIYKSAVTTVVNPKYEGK
UniProt P16070, sequence (P16070 21-742): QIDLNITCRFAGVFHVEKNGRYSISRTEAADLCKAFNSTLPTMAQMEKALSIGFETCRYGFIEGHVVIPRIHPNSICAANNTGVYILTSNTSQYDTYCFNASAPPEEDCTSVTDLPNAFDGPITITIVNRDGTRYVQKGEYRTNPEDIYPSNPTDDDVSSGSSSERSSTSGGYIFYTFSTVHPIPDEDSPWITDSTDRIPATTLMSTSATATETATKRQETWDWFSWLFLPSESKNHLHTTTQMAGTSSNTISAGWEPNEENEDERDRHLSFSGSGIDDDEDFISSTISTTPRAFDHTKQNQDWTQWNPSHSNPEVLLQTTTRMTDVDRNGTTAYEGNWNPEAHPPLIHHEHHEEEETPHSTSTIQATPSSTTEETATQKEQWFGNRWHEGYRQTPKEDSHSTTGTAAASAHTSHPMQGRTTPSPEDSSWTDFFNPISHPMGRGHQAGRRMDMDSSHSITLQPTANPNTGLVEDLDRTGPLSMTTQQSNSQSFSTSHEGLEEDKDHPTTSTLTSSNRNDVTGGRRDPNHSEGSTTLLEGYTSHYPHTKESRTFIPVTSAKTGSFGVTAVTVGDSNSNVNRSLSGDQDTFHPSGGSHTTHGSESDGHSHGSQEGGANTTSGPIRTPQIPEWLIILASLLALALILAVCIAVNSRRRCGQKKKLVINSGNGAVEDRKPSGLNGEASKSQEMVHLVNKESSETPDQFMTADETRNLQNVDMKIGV

Row | Substance | % total attached (HOS cells; Plastic surface) [%] | % total attached (HOS cells; chromocobalt (CrCo) surface) [%] | % total attached (HOS cells; glass surface) [%] | Mean Percent Bone Density (canine model [2]; 4 weeks) [%] | Mean Percent Bone to Implant Contact (canine model [2]; 4 weeks) [%] | Mean Percent Bone to Implant Contact (canine model [2]; 12 weeks) [%] | % Spread ([3]; no antibody, coated plates) [%] | % total attached cells ([3]; no antibody, coated plates) [%] | also measured
1 | Fibronectin [reference compound] | 91.6 | 54.8 | 89.6 | – | – | – | – | – | –
2 | rOPN: Recombinant Osteopontin coated on TPS dental implants; printed as OPN in Tables 4-7 | – | – | – | 70.9 | 65.6 | 62.5 | – | – | serum chemistry, hematology and antibody results following treatment (canine model [1]): no clinically significant differences from baseline
3 | OPN: Table 2: unphosphorylated OPN used as surface coating | 43.6 | 4 | 37.2 | 70.5 | 65.6 | 62.5 | – | – | Mean Percent Bone Density (canine model [2]; 12 weeks): 56.9%
4 | Osteopontin (from UniProt P10451 17-314) (ligand) | – | – | – | – | – | – | – | – | % Spread (# Anti-CD44) (CD44 (human)): 46.4%; % total attached cells (# Anti-CD44) (CD44 (human)): 66%; % Spread (# Anti-αvβ3) (αvβ3 integrin (human)): 24.8%; % total attached cells (# Anti-αvβ3) (αvβ3 integrin (human)): 69.2%; % Spread (# Anti-αβ1) (αβ1 integrin (human)): 56.6%; % total attached cells (# Anti-αβ1) (αβ1 integrin (human)): 74.8%
5 | Osteopontin: osteopontin used to coat plates in Table 8; form not specified | – | – | – | – | – | – | 78.4 | 78.4 | % Spread [3, 4]: 46.4%; % total attached cells [3, 4]: 66%; % Spread [3, 5]: 24.8%; % total attached cells [3, 5]: 69.2%; % Spread [3, 6]: 56.6%; % total attached cells [3, 6]: 74.8%
6 | DTFTPIVPTVDVPNGRFDSLAYGLKSKSKKFQ [SEQ ID NO: 13] | – | – | – | – | – | – | 100.0 | 91.1 | –
